One may read the IC20 as the point of the concentration-response curve where the effect stands at 20%. By IC30 is commonly meant the concentration at which the effect reaches the 30% level. The low end stands for greater potency, the high end for weaker potency. By IC80 is commonly meant the concentration at which the effect reaches the 80% level. Read a low IC80 as greater potency.

One compound from patent publication US20250002914A1, “NUCLEIC ACID AGENTS FOR TREATMENT OF NON-SMALL-CELL LUNG CANCER” (UNIVERSITY COLLEGE DUBLIN, priority 2021, published 2025) can be followed below.

What all share (type): cell-based
One test has as its system A549 cells. The experiment in a line: Cisplatin dose response, A549. As to the method: (§1) Cisplatin screen. Optimal cisplatin working concentrations were established via dose response and cell doubling time. In the dose response, 3,000 A549 and H460 cells were plated in 96-well plates and treated with a range of cisplatin concentrations. After 72 h, CellTiter-Glo 2.0 (Promega, cat. no. G9242) was added to the media (1:1), and luminescence was recorded. For the cell doubling time, 1M cells were plated in 10 cm plates. Different cisplatin concentrations were added at indicated concentrations, and living cells counted every 2-3 days up to 14 days. Cisplatin survival screen: 48M and 96M cells were plated at TO and treated with 6.5 μM and 25 μM of Cisplatin for A549 cells and 2 μM and 10 μM for H460 cells, corresponding to IC30 and IC80, respectively. Cell pellets were collected after 14 and 21 days. The death screen was carried out as follows: 144M cells were seeded and treated with cisplatin at 2 μM and 1 μM (IC20) for A549 and H460, respectively. Every 24 h, for five days, floating (dead) cells were collected and pooled together for gDNA extraction.

Another test has as its system H460 cells. Description: Cisplatin dose response, H460. As to the method:
as §1

For the next test, the system named is Tier II genes. Description: Tier II genes' expression following cisplatin treatment.

The structures appear in SMILES notation.

In the test with A549 cells, `N.N.[Cl][Pt][Cl]` [Cisplatin, cisplatin] had a concentration for an effect of 20% (IC20) of 2 µM, a 30% effect concentration (IC30) of 6.5 µM and a concentration for an effect of 80% (IC80) of 25 µM. For the same compound, in the test with H460 cells, the IC20 came out at 1 µM, the IC30 was 2 µM and the 80% effect level (IC80) was put at 10 µM. In the test with Tier II genes, the “Tier II genes' expression” value is given as “upregulation”.
